The target of the experiment is Casein kinase II subunit alpha (Homo sapiens, UniProt P68400). Briefly: CK2α Inhibition Assay.

Our source for the Ki values is BindingDB's records for doi:10.1016/j.bioorg.2017.02.017 (Warsaw University of Technology, 2017).

As a reminder, the Ki is a measure of affinity in units of concentration, obtained from inhibition or displacement. The low end stands for a stronger hold on the target, the high end for a looser hold on the target.

Casein kinase II subunit alpha, sequence (P68400 whole entry): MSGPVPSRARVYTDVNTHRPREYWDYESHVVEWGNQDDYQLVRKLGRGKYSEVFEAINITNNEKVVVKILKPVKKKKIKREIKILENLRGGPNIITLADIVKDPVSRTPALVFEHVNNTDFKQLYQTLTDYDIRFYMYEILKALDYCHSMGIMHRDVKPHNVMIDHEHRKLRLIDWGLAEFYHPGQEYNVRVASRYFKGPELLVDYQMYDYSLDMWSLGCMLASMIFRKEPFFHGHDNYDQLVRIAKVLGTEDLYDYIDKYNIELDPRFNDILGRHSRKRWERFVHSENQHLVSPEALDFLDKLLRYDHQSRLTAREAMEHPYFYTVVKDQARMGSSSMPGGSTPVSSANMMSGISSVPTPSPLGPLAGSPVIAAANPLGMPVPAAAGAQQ
Description: The activity of CK2α was tested using P81 filter isotopic assay, as it was described earlier [Łukowska-Chojnacka et al., Bioorg.

In turn, `[N-]=[N+]=NCCn1cnc2c(Br)c(Br)c(Br)c(Br)c21` [1-(2-Azidoethyl)-4,5,6,7-tetrabromo-1H-benzimidazole (3)] yielded a Ki of 2340 nM. This counts as single-digit micromolar.
The result for `[N-]=[N+]=NCCCn1cnc2c(Br)c(Br)c(Br)c(Br)c21` [1-(3-Azidopropyl)-4,5,6,7-tetrabromo-1H-benzimidazole (5)] reads 3280 nM.
Under `O=C(O)c1cn(CCn2cnc3c(Br)c(Br)c(Br)c(Br)c32)nn1` [1-[2-(4,5,6,7-Tetrabromo-1H-benzimidazol-1-yl)ethyl]-1H-1,2,3-triazole-4-carboxylic acid (7)] stands 1960 nM; under `O=C(O)c1cn(CCCn2cnc3c(Br)c(Br)c(Br)c(Br)c32)nn1` [1-[3-(4,5,6,7-Tetrabromo-1H-benzimidazol-1-yl)propyl]-1H-1,2,3-triazole-4-carboxylic acid (10)], 910 nM.
Under `O=C(O)c1cn(CCCn2nc3c(Br)c(Br)c(Br)c(Br)c3n2)nn1` [1-[3-(4,5,6,7-Tetrabromo-2H-benzotriazol-2-yl)propyl]-1H-1,2,3-triazole-4-carboxylic acid (22)] stands 2470 nM; under `O=C(O)CCc1cn(CCn2cnc3c(Br)c(Br)c(Br)c(Br)c32)nn1` [3-{1-[2-(4,5,6,7-Tetrabromo-1H-benzimidazol-1-yl)ethyl]-1H-1,2,3-triazole-4-yl}propanoic acid (8)], 5370 nM.
The compound `O=C(O)CCc1cn(CCCn2cnc3c(Br)c(Br)c(Br)c(Br)c32)nn1` [3-{1-[3-(4,5,6,7-Tetrabromo-1H-benzimidazol-1-yl)propyl]-1H-1,2,3-triazole-4-yl}propanoic acid (11)] gave a Ki of 2370 nM.
Under `O=C(O)CCc1cn(CCCn2nc3c(Br)c(Br)c(Br)c(Br)c3n2)nn1` [3-{1-[3-(4,5,6,7-Tetrabromo-2H-benzotriazol-2-yl)propyl]-1H-1,2,3-triazole-4-yl}propanoic acid (23)] stands 3160 nM; under `Cc1c(Br)c(Br)c(Br)c2nc[nH]c12` [4,5,6-tribromo-7-methyl-1H-benzimidazole (13)], 2260 nM.
